# Experimental data published in ChEMBL document CHEMBL2062519, “The β-Amyloid Hypothesis in Alzheimer's Disease: Seeing Is Believing” (ACS Med Chem Lett, 2012).
# Biological target: Amyloid-beta precursor protein (Homo sapiens, UniProt P05067)
# Experiment: Binding affinity to human amyloid beta plaque
# Amyloid-beta precursor protein, sequence (P05067 whole entry): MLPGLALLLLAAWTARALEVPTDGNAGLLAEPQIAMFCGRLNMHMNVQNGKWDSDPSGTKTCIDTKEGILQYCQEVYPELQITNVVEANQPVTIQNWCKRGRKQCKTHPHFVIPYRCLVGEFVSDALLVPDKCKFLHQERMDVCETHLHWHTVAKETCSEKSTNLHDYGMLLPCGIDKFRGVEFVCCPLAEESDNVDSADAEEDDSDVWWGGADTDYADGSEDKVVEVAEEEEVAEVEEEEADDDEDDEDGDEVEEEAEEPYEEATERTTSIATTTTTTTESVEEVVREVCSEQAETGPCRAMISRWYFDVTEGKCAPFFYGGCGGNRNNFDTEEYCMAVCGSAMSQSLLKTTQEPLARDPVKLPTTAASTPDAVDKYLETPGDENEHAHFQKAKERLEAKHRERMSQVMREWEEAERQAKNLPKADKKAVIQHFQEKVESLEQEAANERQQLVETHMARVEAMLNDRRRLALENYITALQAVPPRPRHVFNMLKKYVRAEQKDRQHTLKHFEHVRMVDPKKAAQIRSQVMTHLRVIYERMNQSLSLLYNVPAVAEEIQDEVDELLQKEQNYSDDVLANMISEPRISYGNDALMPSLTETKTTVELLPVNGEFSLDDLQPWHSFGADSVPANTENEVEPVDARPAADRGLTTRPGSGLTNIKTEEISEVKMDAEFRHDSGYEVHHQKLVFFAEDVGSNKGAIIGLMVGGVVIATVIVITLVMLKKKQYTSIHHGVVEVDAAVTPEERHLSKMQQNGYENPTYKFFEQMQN
structure (smiles),measurement,value
CNc1ccc(-c2nc3ccc(O)cc3s2)cc1[18F] [FLUTEMETAMOL F 18],Ki,0.7 nM
